These results are taken from patent US20260234150A1, “COMPOUND FOR INHIBITING NLRP3, PREPARATION METHOD, AND USE” (DOVETREE MEDICINES UNUS, INC., priority 2023, published 2026).

Series [1] has as its system IL-1β secretion of THP-1 cells. The series can be described thus: Effect of NLRP3 inhibitor on IL-1β secretion of THP-1 cells (AlphaLISA). It is filed as cell-based. As to conditions: Homo sapiens; PMA, LPS and Nigericin stimulated THP-1 cells, IL-1β in supernatant; read-out: IC50 (nM), THP-1 cells to detect NLRP3 inhibitors.
For the next series, the target named is T1, CYP2D6 (Homo sapiens, UniProt P10635).
T1 construct: 0.05 mg/mL liver microsome (BioIVT, IHG) phosphate buffer solution; tissue BioIVT IHG; host or cells: human liver microsomes
T1 sequence (P10635 whole entry): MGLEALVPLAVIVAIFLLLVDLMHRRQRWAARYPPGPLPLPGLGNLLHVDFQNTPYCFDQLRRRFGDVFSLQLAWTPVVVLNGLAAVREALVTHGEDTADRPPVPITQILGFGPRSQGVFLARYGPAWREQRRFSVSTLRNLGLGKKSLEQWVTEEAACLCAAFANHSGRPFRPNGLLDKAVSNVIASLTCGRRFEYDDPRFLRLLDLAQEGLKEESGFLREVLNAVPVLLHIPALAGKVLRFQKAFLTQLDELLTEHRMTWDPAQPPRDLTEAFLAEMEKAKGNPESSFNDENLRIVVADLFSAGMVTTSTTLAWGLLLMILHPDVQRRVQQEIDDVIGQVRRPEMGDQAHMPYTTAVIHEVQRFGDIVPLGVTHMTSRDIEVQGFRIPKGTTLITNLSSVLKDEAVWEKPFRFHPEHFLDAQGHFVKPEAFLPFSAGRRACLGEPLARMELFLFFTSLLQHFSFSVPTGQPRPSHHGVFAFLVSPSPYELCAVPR
The series can be described thus: CYP450 enzyme inhibition in human liver microsomes, CYP2D6. It is filed as in vitro ADME. To be noted: substrate Dextromethorphan, read-out: Inhibitory activity IC50 (μM) CYP2D6. The method, then: This experiment incubates the compound, liver microsomes and different CYP subtype enzyme substrates in a 37° C. water bath to measure the amount of substrate metabolites produced and evaluate the inhibitory effect of the compound of the present disclosure on CYP enzymes based on the IC50 value.
i. The compound was diluted to 0, 0.02 mM, 0.06 mM, 0.2 mM, 0.6 mM, 2 mM and 6 mM concentrations with DMSO (Aladdin, catalog number: D103273-500 ml).
ii. The enzyme substrate solutions of each CYP subtype were prepared by phosphate buffer (sigma: V900050-500G).
iii. Sample incubation. […] After centrifugation at 4000 rpm and 4° C. for 40 min, the supernatant was diluted with pure water according to the response of the substrate metabolites and then detected by UPLC-MS/MS (Sciex, Q-Trap 4500). […]
The inhibitory effect of the compound on each P450 enzyme in human liver microsomes was calculated as the percentage of reduced metabolite formation compared with the non-inhibitory control (i.e., blank DMSO). The IC50 value for each P450 enzyme in human liver microsomes was calculated using the logarithm of the remaining activity and the inhibitor concentration using Graphpad Prism software. […]

A short description of series [2]: Liver microsome metabolic stability, mouse. The series is classed as in vitro ADME. To be noted: mouse liver microsomes, 45 min incubation. As for the experimental part: (§1) Purpose: This experiment investigates the metabolic stability of the compound in liver microsomes of different species such as humans, mice and rats, and the residual content of the test compound after incubation with liver microsomes of different species such as humans, mice and rats.
(§2) Preparation of 500 μM solution of target compound and positive control: 5 μL of each 10 mM stock solution was taken, added to 95 μL acetonitrile, and mixed for 30 s;
(§3) Preparation of 6 mM NADPH solution: 100 mM Stock aliquot liquid was diluted with Mg-Mg —K-Buffer.
(§4) 2.1.1 Liver microsome solution: 18.75 μL of 20 mg/mL HLM, RLM, MLM, DLM, MOLM (final concentration: 0.5 mg/ml) were taken and placed them in each well of a 96-well plate;
(§5) 2.1.2 1.5 μL of 500 μM solution of each compound was added respectively;
(§6) 2.1.3 479.8 μL of phosphate buffer was taken, then added to each compound well, and mixed at 1000 rpm in an oscillating mixer for 10 s.
(§7) 30 μL of the above samples were taken and aliquoted to a new 96-well plates respectively (including NADPH group, n=2, and no NADPH group at 0 and 45 min, n=1), marked as 0, 5, 15, 30 and 45 min; […]
(§8) The slope was calculated based on the LN value of the compound concentration percentage and time as the coordinate axis, and the residual content of the compound after incubation with liver microsomes was calculated based on the slope and formula. […]

The nature of series [3]: Liver microsome metabolic stability, rat. It is filed as in vitro ADME. To be noted: rat liver microsomes, 45 min incubation. As for the experimental part:
as §1, §2, §3, §4, §5, §6, §7, §8

`CC(=O)N1CCOC[C@H]1CNc1nc2nc(-c3c(C)cc(C(F)(F)F)cc3O)ccc2o1` [Compound 111]: the values for the IC50 (in series [1]; at CYP2D6) were below 50 nM and above 30 µM, respectively. In addition, the “LMS (m)(% rem, 45 min)” value in series [2] is reported as 91.34 % rem. The “LMS (r)(% rem, 45 min)” value in series [3] is 82.45 % rem.
